# Laboratory results as given in PubChem BioAssay (NCI).
# Several values for one entry are separate records, joined by “and”; a condition that tells them apart may be missing. Equal entries are not always repeated.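 How tested: cells in 96-well plates exposed to compound for 48 hours at five concentrations. At the GI50, growth is halved. TGI: concentration producing complete growth inhibition.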
# How the values were obtained:
# Test in all cases: NCI tumour cell line growth inhibition, 48 h
# [1] = test system: SNB-75 CNS
# [2] = test system: T-47D breast
# [3] = test system: HOP-62 NSCLC
# [4] = test system: U251 CNS
# [5] = test system: MOLT-4 leukemia
# [6] = test system: MDA-MB-231 breast
# [7] = test system: HS 578T breast
# [8] = test system: MDA-MB-435
# [9] = test system: COLO 205 colon
# [10] = test system: HCT-15 colon
Compound,TGI [1],TGI [2],TGI [3],TGI [4],TGI [5],TGI [6],TGI [7],TGI [8],TGI [9],TGI [10],GI50 [1]
COc1ccc2c(-c3ccc(O)cc3)c(Oc3ccccc3)c(=O)oc2c1,> 66.5 µM,> 100 µM,> 100 µM,> 61.5 µM,> 100 µM,> 100 µM,99.1 µM,> 100 µM,> 100 µM,> 100 µM,–
c1ccc2c(Cc3c[nH]c4ccccc34)c[nH]c2c1,36.8 µM,63.7 µM,33.8 µM,37.2 µM,61.1 µM,31.5 µM,63.3 µM,31.3 µM,27.8 µM,> 100 µM,–
O=C(c1ccco1)N1CCN(C(=O)c2ccco2)C1=S,26.2 µM,27.8 µM,33.1 µM,24 µM,24.5 µM,25.4 µM,> 100 µM,14.1 µM,21.2 µM,26.3 µM,–
CC1(C)OC2CN(C(=O)OCc3ccccc3)C(CO)C2O1 (stereo unspecified),> 100 µM,> 100 µM,> 100 µM,> 100 µM,> 100 µM,> 100 µM,> 100 µM,> 100 µM,> 100 µM,> 100 µM,–
O=[N+]([O-])/C(C(Cl)=C(Cl)Cl)=C(/Sc1ccccc1)N1CCOCC1,24.4 µM,16 µM,33.5 µM,23.5 µM,4.61 µM,19.8 µM,59.5 µM,9.2 µM,11 µM,10.9 µM,–
O=S(=O)(NC(c1ccccc1)(c1cc2ccccc2[nH]1)c1cc2ccccc2n1S(=O)(=O)c1ccccc1)c1ccccc1 (stereo unspecified),> 100 µM,> 100 µM,> 100 µM,> 100 µM,> 100 µM,> 100 µM,> 100 µM,> 100 µM,> 100 µM,> 100 µM,–
CN(C)CCCNC(=O)CNC(=O)c1cc(NC(=O)c2cc(NC(=O)c3cc(NC(=O)CCNC(=O)c4cc(NC(=O)c5cc(NC(=O)c6nccn6C)cn5C)cn4C)cn3C)cn2C)cn1C,> 100 µM,> 100 µM,> 100 µM,> 100 µM,57 µM,> 100 µM,> 100 µM,> 100 µM,> 100 µM,> 100 µM,–
CC(=O)NC1CCC(NC(=O)OC(C)(C)C)C(NC(=O)OC(C)(C)C)C1 (stereo unspecified),> 100 µM,> 100 µM,> 100 µM,> 100 µM,> 100 µM,> 100 µM,> 100 µM,> 100 µM,> 100 µM,> 100 µM,–
O=C(CN=C(CN(c1ccccc1)c1ccccc1)Oc1c([N+](=O)[O-])cc([N+](=O)[O-])cc1[N+](=O)[O-])N1CCNCC1,> 100 µM,> 100 µM,> 100 µM,> 100 µM,> 100 µM,> 100 µM,> 100 µM,> 100 µM,> 100 µM,> 100 µM,–
C=CC1(CBr)CCC(C(C)(C)Br)O1 (stereo unspecified),20.4 µM,15.5 µM,30 µM,15.9 µM,7.06 µM,28.3 µM,39.6 µM,26.6 µM,20.6 µM,23.8 µM,–
CCOC(=O)C1(Cc2ccccc2)CCN(C(=O)c2ccccc2)C2C1C2(Cl)Cl (stereo unspecified),62.6 µM,62.4 µM,87.2 µM,32.6 µM,52.9 µM,43.9 µM,71.5 µM,48.3 µM,35.9 µM,> 100 µM,–
CCOC(=O)CC[C@@H](NC(=O)c1ccc(NCc2ccc3nc(OC)c(OC)nc3c2)cc1)C(=O)OCC,24.9 µM,58.3 µM,> 100 µM,> 100 µM,> 31.6 µM,> 100 µM,> 80.9 µM,99.2 µM,69.4 µM,> 100 µM,–
COc1ccc(CN=C2Nc3ccncc3S(=O)(=O)N2c2ccccc2)cc1,> 100 µM,> 100 µM,> 100 µM,> 100 µM,44.7 µM,> 100 µM,> 100 µM,80.7 µM,> 100 µM,> 100 µM,–
C(/C=N/NC1=NCCN1)=N\NC1=NCCN1,> 100 µM,> 100 µM,> 100 µM,> 100 µM,> 100 µM,> 100 µM,> 100 µM,> 100 µM,> 100 µM,> 100 µM,–
CC1(C)OC[C@@]2([C@@H]3CC[C@@H](C3)C2(C)C)N1O,> 100 µM,> 100 µM,> 100 µM,> 100 µM,> 100 µM,> 100 µM,> 100 µM,> 100 µM,> 100 µM,> 100 µM,–
Cc1ccc(NC(=S)NNC(=O)c2cc(-c3ccccc3)nc3ccccc23)cc1C,56.5 µM,8.41 µM,54.8 µM,49.4 µM,53.3 µM,57.7 µM,> 100 µM,59.5 µM,34.2 µM,60.5 µM,–
COc1cc(/C=C/C(=O)O)ccc1O,> 100 µM,> 100 µM,> 100 µM,> 100 µM,> 100 µM,> 100 µM,> 100 µM,> 100 µM,> 100 µM,> 100 µM,–

Compound,TGI [1],TGI [2],TGI [3],TGI [4],TGI [5],TGI [6],TGI [7],TGI [8],TGI [9],TGI [10],GI50 [1]
CC1=NN(C(=O)CC(=O)Nc2cccc(Cl)c2)C(=O)C1N=Nc1ccc(S(=O)(=O)c2ccc(N=NC3C(=O)N(C(=O)CC(=O)Nc4cccc(Cl)c4)N=C3C)cc2)cc1 (stereo unspecified),> 100 µM,> 100 µM,> 100 µM,> 100 µM,> 100 µM,52.2 µM,> 100 µM,> 100 µM,> 100 µM,> 100 µM,–
Cc1ccnc2c1c(=O)c1ccccc1n2C,56.3 µM,> 100 µM,> 100 µM,> 100 µM,73.8 µM,> 100 µM,73.5 µM,> 100 µM,> 100 µM,> 100 µM,–
C=CCOc1ccc(C2c3c([nH][nH]c3=O)CC(C)(O)C2C(=O)OC)cc1OC (stereo unspecified),> 100 µM,> 100 µM,> 100 µM,> 100 µM,> 100 µM,> 100 µM,> 100 µM,> 100 µM,> 100 µM,> 100 µM,–
CCOC(=O)NNC1(SC)NC(=O)c2c(cc(Cl)oc2=O)O1 (stereo unspecified),22.2 µM,29.9 µM,25.6 µM,25.5 µM,10.3 µM,25.1 µM,12.3 µM,17.6 µM,25.9 µM,5.28 µM,–
CC1(C)SC2C(NC(=O)Cc3ccccc3)C(=O)N2C1C(=O)O (stereo unspecified),> 100 µM,> 100 µM,> 100 µM,> 100 µM,> 100 µM,> 100 µM,> 100 µM,> 100 µM,> 100 µM,> 100 µM,–
COc1cccc2c1C(=O)c1ccc3cc(CO)cc(O)c3c1C2=O,9.4 µM,4.96 µM,6.33 µM,5.41 µM,4.22 µM,2.58 µM,9.59 µM,0.359 µM,3.32 µM,1.17 µM,–
CCC(/C=C/c1ccccc1)=N\NC(=S)N/N=C(/C=C/c1ccccc1)CC,> 100 µM,> 100 µM,> 100 µM,> 100 µM,> 100 µM,> 100 µM,> 100 µM,> 100 µM,> 100 µM,> 100 µM,–
CC1C=C(NCC2(CO)CCC2)NC(N)=N1 (stereo unspecified),> 100 µM,> 100 µM,> 100 µM,> 100 µM,> 100 µM,> 100 µM,> 100 µM,> 100 µM,> 100 µM,> 100 µM,–
Cc1ccc(N2C(=O)CC(=O)N(NC(=O)C(C)Oc3ccccc3C)C2=S)cc1 (stereo unspecified),> 100 µM,> 100 µM,> 100 µM,> 100 µM,> 100 µM,> 100 µM,> 100 µM,> 100 µM,> 100 µM,> 100 µM,–
COc1ccc(C2c3cc4c(cc3OC(N3CCOCC3)C2C)OCO4)c(OC)c1 (stereo unspecified),23.4 µM,> 54.8 µM,31.5 µM,15.5 µM,31.9 µM,32.5 µM,8.22 µM,8.83 µM,> 57.6 µM,> 75.9 µM,–
O=[N+]([O-])c1cccc2nc3ccccc3c(NCCNCCO)c12,0.0565 µM and 0.0397 µM,0.101 µM and 0.0533 µM,0.0799 µM and 0.0174 µM,0.0467 µM and 0.0298 µM,0.0891 µM and 0.0113 µM,0.0668 µM and 0.0816 µM,0.111 µM,0.0278 µM and 0.014 µM,0.0106 µM and 0.0213 µM,> 100 µM,0.0132 µM
NNC(=O)CCCCCCCC(=O)O,> 100 µM,> 100 µM,> 100 µM,> 100 µM,> 100 µM,> 100 µM,> 100 µM,> 100 µM,> 100 µM,> 100 µM,–
Cn1c2c(c3ccccc31)CC(=O)N1CCCCC1C21OCCO1 (stereo unspecified),> 100 µM,> 100 µM,> 100 µM,> 100 µM,> 100 µM,> 100 µM,> 100 µM,> 100 µM,> 100 µM,> 100 µM,–
O=C(NCCCCNCCCNC(=O)C(F)(F)F)C(F)(F)F,> 100 µM,> 100 µM,> 100 µM,> 100 µM,> 100 µM,> 100 µM,> 100 µM,> 100 µM,> 100 µM,> 100 µM,–
COC(=O)c1ccc(NCC2=CC(=O)c3ccccc3C2=O)cc1,46.8 µM,32.5 µM,34.7 µM,63 µM,> 29.1 µM,10.3 µM,76.4 µM,30.3 µM,31.6 µM,33.1 µM,–
Cc1cc2c(cc1Cl)Sc1nnc(C)n1S2(=O)=O,47.5 µM,28.3 µM,57.9 µM,42.8 µM,34.7 µM,31.4 µM,79.7 µM,26.6 µM,30.7 µM,25.5 µM,–
